Experiments:
[1] = Intraduodenal bioavailability of zanamivir from glycerol and PBS formulations, enhancer pre-dose (Example 6); settings: male, Sprague-Dawley, rat, in vivo, 1.5 mg/animal, Plasma concentration, ID 1.5 mg/animal
Excerpt: Male Sprague-Dawley rats (Hilltop Labs), 3 animals per treatment group, 250-350 grams in weight, were fitted with a jugular vein cannula (JVC). Animals intended for intraduodenal dosing were also fitted with one or more intraduodenal cannula (IDC) and those intended for intravenous dosing were fitted with a second JVC. Food was withheld from the animals for a minimum of twelve hours prior to test article administration and was returned approximately four hours post-dose. Water was supplied ad libitum.
Intraduodenal doses composed of 1.5 mg of zanamivir and varying amounts of an enhancer (glycerol or Capmul MCM L8) were injected directly into the duodenum via the IDC. Intravenous dosing was conducted by the injection of 1.5 mg of zanamivir in 200 μL of PBS through a JVC. For some experiments, the absorption enhancer was administered intraduodenally 2 hr prior to administering 1.5 mg of zanamivir in PBS through a second IDC. Each intraduodenal dose was followed with the introduction of a small air bubble (˜10 μL) in the cannula followed by a flush of 125 μL of PBS to ensure the dose was given in full. The volume of PBS used for cannula flush was consistent across the treatment groups. The cannula was tied to prevent the PBS remaining in the cannula from entering the duodenum.
Blood samples collected via the JVC, approximately 400 μL each, were obtained at 2 min, 5 min, 15 min, 30 min, 60 min, 90 min, and 120 min, with sodium heparin used as an anti-coagulant. Each sample was placed into a chilled tube containing the anticoagulant and kept on ice until centrifugation at 4° C., 3,000×g, for 5 min. The plasma supernatants were stored at −70° C. until LC-MS analysis.
Dosing solution samples were assayed by LC-MS/MS using electrospray ionization. The chromatographic system consisted of Perkin Elmer series 200 micropumps and autosampler equipped with a Waters Atlantic® HILIC Silica 3 μM, 2.1×50 mm column. The mass spectrometer was a PE Sciex API 4000 with electrospray interface in multiple reaction monitoring mode. […] Stock solutions (1 mg/mL zanamivir) were prepared in water. Standards (eight concentrations) were prepared in the appropriate matched matrix (HBSSg or Sprague-Dawley rat plasma containing sodium heparin) and diluted 50-fold with methanol. Experimental samples were treated identically.
Standards and samples were prepared in Sprague Dawley rat plasma containing sodium heparin as an anticoagulant. An eight-point calibration curve was prepared at concentrations of 1000, 750, 500, 250, 100, 50, 25, and 10 ng/mL by serial dilution. Standard samples were treated identically to the study samples.
Plasma samples were extracted by protein precipitation in methanol.
In this example, the bioavailability of Zanamivir was evaluated after intraduodenal doses in male Sprague-Dawley rats. The test compound was dosed at 1.5 mg/animal through intraduodenal routes from glycerol and PBS formulations. Plasma levels were determined by LC-MS/MS analysis. Pharmacokinetic parameters were estimated by a non-compartmental model using WinNonlin v5.2.1 software.

Caco-2 cell monolayers = experiment: Unidirectional (A-to-B) permeability of zanamivir across Caco-2 cell monolayers with and without excipients; assay type: in vitro ADME; settings: vs no enhancer
Description: Caco-2 cells were obtained from American Type Culture Collection (Rockville, Md.). Stock cultures were maintained in flasks with DMEM medium supplemented with 10% FBS, 1% non-essential amino acids, 1 mmol/L sodium pyruvate, 100 IU/mL penicillin, and 100 μg/mL streptomycin in a humidified incubator (37° C., 5% CO2). Cells were harvested by trypsinization and seeded at 60,000 cells/cm^2 onto Costar Transwell® 12-well dual-chamber plates with collagen-coated, microporous polycarbonate membranes (1.13 cm^2 insert area, 0.4 μm pore size; Corning Life Sciences, Acton, Mass.) for permeability studies. The culture medium was changed three times per week. […]
Unidirectional (A-to-B) permeability of zanamivir was determined at 15 μg/mL in the absence and presence of varying concentrations of excipients in Caco-2 cell monolayers. […]
Assays were conducted by seeding approximately 68,000 viable Caco-2 cells in 1.12 cm^2 Costar Transwell inserts (12-well format, 0.4 micron pore size PET membranes) in Dulbecco's Modified Eagles Medium (high glucose) supplemented with 20% fetal bovine serum, glutamine, pyruvate, non-essential amino acids, epidermal growth factor, ITS (insulin, transferrin, selenium), and penicillin/streptomycin. […] Transepithelial electrical resistance (TEER) readings were conducted to test the quality of the cell monolayer on the Transwell membrane. […]

[2] = Express IV formulation development: solubility screening in normal saline; assay type: physicochemical; settings: saline or isotonic, thermodynamic from solid, NS, visual observation after vortexing
Description: The following procedure and potential dosing vehicles were evaluated, and the results are described. The target concentrations of 5 mg/mL were investigated. 1. Weigh 2-5 mg of the zanamivir into a 4 mL glass vial. 2. Add the appropriate volume of normal saline. 3. Vortex, record observations of the formulation. 4. Take an aliquot and dilute it 5-fold with NS. 5. Record observations of the formulation. 6. End of the procedure.

[3] = 50 µL PBS, 50 µL blank Capmul MCM L8 -2 hr, individual rats
[4] = 50 µL PBS, 50 µL blank Capmul MCM L8 -2 hr, mean
[5] = 50 µL PBS, 150 µL blank glycerol -2 hr, mean
[6] = 50 µL PBS, 150 µL blank glycerol -2 hr, individual rats
[7] = 100 µL Glycerol, individual rats
[8] = 150 µL Glycerol, individual rats

In the case of `CC(=O)NC1C(NC(=N)N)C=C(C(=O)O)OC1C(O)C(O)CO` (stereo not shown) [Zanamivir, 5-acetamido-4-guanidino-6-(1,2,3-trihydroxypropyl)-5,6-dihydro-4H-pyran-2-carboxylic acid], the concentration at 0.25 hr [1, 3] is reported as 33.3 ng/mL, the concentration at 0.25 hr [1, 4] is reported as 29.5 ng/mL and the concentration at 0.5 hr [1, 3] is reported as 38 ng/mL. The concentration at 0.5 hr [1, 4] was 38.5 ng/mL, the concentration at 0.83 hr [1, 4] was 10.8 ng/mL and the concentration at 1 hr [1, 3] was 33 ng/mL. For the same compound, the concentration at 1 hr [1, 4] was 32.7 ng/mL, the concentration at 1.5 hr [1, 4] was 38.7 ng/mL and the concentration at 2 hr [1, 4] was 33.8 ng/mL. For the same compound, the concentration at 0.25 hr [1, 5] was 51.8 ng/mL, the concentration at 0.5 hr [1, 6] was 50.2 ng/mL and the concentration at 0.5 hr [1, 5] was 54.2 ng/mL. For the same compound, the concentration at 0.83 hr [1, 5] was 24.4 ng/mL, the concentration at 1 hr [1, 6] was 36.4 ng/mL and the concentration at 1 hr [1, 5] was 38.2 ng/mL. The concentration at 1.5 hr [1, 6] was 40.1 ng/mL, the concentration at 1.5 hr [1, 5] was 40.1 ng/mL and the concentration at 2 hr ([1]; 50 µL PBS, 150 µL blank glycerol -2 hr, individual rats, BLOQ = below 10 ng/mL) was 53.4 ng/mL. For the same compound, the concentration at 2 hr [1, 5] was 54.1 ng/mL, the concentration at 0.25 hr [1, 7] was 52 ng/mL and the concentration at 0.25 hr ([1]; 100 µL Glycerol, mean) was 56.4 ng/mL. The concentration at 0.5 hr [1, 7] was 51.4 ng/mL, the concentration at 0.5 hr ([1]; 100 µL Glycerol, mean) was 48.7 ng/mL and the concentration at 0.83 hr ([1]; 100 µL Glycerol, mean) was 57.1 ng/mL. The concentration at 1 hr [1, 7] was 38.5 ng/mL, the concentration at 1 hr ([1]; 100 µL Glycerol, mean) was 44.4 ng/mL and the concentration at 1.5 hr ([1]; 100 µL Glycerol, mean) was 46.9 ng/mL. It also gave a concentration at 2 hr ([1]; 100 µL Glycerol, mean) of 54.2 ng/mL, a concentration at 0.25 hr [1, 8] of 109 ng/mL and a concentration at 0.25 hr ([1]; 150 µL Glycerol, mean) of 87.7 ng/mL. It also gave a concentration at 0.5 hr ([1]; 150 µL Glycerol, mean) of 69.2 ng/mL, a concentration at 0.83 hr [1, 8] of 139 ng/mL and a concentration at 0.83 hr ([1]; 150 µL Glycerol, mean) of 107 ng/mL. It also gave a concentration at 1 hr [1, 8] of 52.5 ng/mL, a concentration at 1 hr ([1]; 150 µL Glycerol, mean) of 49.9 ng/mL and a concentration at 1.5 hr ([1]; 150 µL Glycerol, mean) of 36.6 ng/mL. For the same compound, the concentration at 2 hr ([1]; 150 µL Glycerol, mean) was 29.3 ng/mL, the “increase in apparent permeability coefficient (Papp)” value (Caco-2 cell monolayers; optimized concentration of Capmul MCM L8 (0.25%)) was over 5 fold and the “increase in apparent permeability coefficient (Papp)” value (Caco-2 cell monolayers; optimized concentration of glycerol (5%)) was over 5 fold. For the same compound, the solubility [2] was at least 5000 µg/mL.
